Measured values from patent US10426718B2, “Compositions and methods for treating hair loss and delaying aging of skin” (Phyto Tech Corp., priority 2012, dated 2019).

Tests used:
Assay type in all cases: in vivo, mouse
C57BL/6J male mice [1] = assay: hair regrowth on depilated dorsal skin; conditions: DHM 10% (w/w-%), 1 ml topical daily, day 12; vs vehicle control; similar to minoxidil 2%; P<0.05, N=10
Source text: (§1) A total of 40 seven-week-old, wild type C57BL/6J male mice were used for the study. The mice were housed individually (one mouse/cage). The mice were randomly assigned to one of four treatment groups that contained 10 mice per group. The treatment groups included a vehicle control, a positive control (minoxidil 2%), DHM 5% (w/w-%), and DHM 10% (w/w-%).
(§2) The vehicle used for all treatment groups was a mixture of alcohol denat., propanediol, water, ethylhexylglycerin, and phenoxyethanol. The DHM used in the DHM treatment groups has a purity of 98%.
(§3) The DHM 10% treatment contained the following percentage concentrations (w/w-%): 20% alcohol denat., 10% DHM, 50% propanediol, 19.5% water, and 0.5% ethylhexylglycerin and phenoxyethanol.
(§4) The hair of the dorsal skin (2×5 cm) from every mouse was removed by clipping and topical application of calcium thioglycolate to depilate the clipped area. The next day, mice without visible wounds were used for the study. The mice received a daily topical application of 1 ml of their respective treatment per day. Hair regrowth was quantified by analyzing photographs that were taken of each mouse every 4 days after topical treatment for a total of 21 days (day 0, 4, 8, 12, 16, and 21). For each mouse, an area of 3 cm^2 of the back was analyzed. All experiments were continued for 21 days. […]

c57BL/6J mice = assay: topical toxicity / allergic reaction test, Vaseline mixed with DHM on shaved skin; conditions: Vaseline mixed with 1 g DHM, six weeks
Source text: To determine whether topical application of DHM is toxic or causes allergic reaction, Vaseline mixed with 1 g DHM was applied to the shaved skin of c57BL/6J mice for six weeks.

C57BL/6J male mice [2] = assay: induction of anagen on depilated dorsal skin; conditions: DHM 10% (w/w-%), 1 ml topical daily, day 8; vs vehicle control; similar to minoxidil 2%; P<0.05, N=10
Source text: as §1, §2, §3, §4

[3] = tested on: chronically stressed C57BL/6J mice; assay: elevated plus maze (EPM) behavioral anxiety test in chronically stressed mice; conditions: for behavioral anxiety (EPM and OFT together): 1 μM DHM, daily topical treatment for 6 weeks, chronically stressed mice
Experimental: The effectiveness of DHM in the treatment of stress-induced hair loss was tested using two groups of eight week old C57BL/6J mice. Chronic stress was induced in the first group (n=20) by restraining each mouse in the test group for 3 hours per day for 21 consecutive days in a modified 50 ml clear polystyrene conical centrifuge tube with multiple air holes for ventilation. The second group of mice (n=10) remained undisturbed in their home cages (Fernandex-Vozmediano et al. (1994) “Contact dermatitis due to topical spironolactone.” Contact Dermatitis 30: 118-9; Tresch, et al. (2011) “T cell-mediated acute localized exanthematous pustulosis caused by finasteride.” J Allergy Clin Immunol 129: 589-94). The completion of the 21 day stress-induction cycle was followed by a two day withdrawal. […] The rodents' stress levels were also assessed via elevated plus maze (EPM) and open field test (OFT). EPM and OFT are behavioral tests that are commonly used to assess anxiety by measuring a mouse's locomotor activity and willingness to explore. When anxious, rodents naturally prefer enclosed dark spaces to opened brightly lit spaces. In the EPM test, individual mice from each group were placed on a plus-shaped apparatus that was raised from the floor and had two open and two enclosed arms. Within the context of EPM, anxiety-related behavior was measured by the degree to which a mouse avoided the unenclosed arms of the maze. As shown in FIG. 2A and FIG. 2B, the unstressed mice explored the open arms, whereas the chronically stressed mice avoided the open arms and restricted their movements to the closed arms. In OFT, each mouse was placed on an empty table surrounded by walls, and the mouse's movements and the time it spent moving were monitored. Within the context of OFT, anxiety-related behavior was measured by the degree to which a mouse avoided the open center and stayed close to the walls. As shown in FIG. 2C and FIG. 2D, the unstressed mice explored center of the table, whereas the chronically stressed mice avoided the center and remained in the corners. […]

[4] = tested on: chronically stressed C57BL/6J mice; assay: treatment of stress-induced hair loss (restraint-stressed mice), hair regrowth; conditions: 1 μM DHM in 1 oz. Vaseline, topical once per day for six weeks, vs Vaseline alone
Experimental: (§5) The effectiveness of DHM in the treatment of stress-induced hair loss was tested using two groups of eight week old C57BL/6J mice. Chronic stress was induced in the first group (n=20) by restraining each mouse in the test group for 3 hours per day for 21 consecutive days in a modified 50 ml clear polystyrene conical centrifuge tube with multiple air holes for ventilation. The second group of mice (n=10) remained undisturbed in their home cages (Fernandex-Vozmediano et al. (1994) “Contact dermatitis due to topical spironolactone.” Contact Dermatitis 30: 118-9; Tresch, et al. (2011) “T cell-mediated acute localized exanthematous pustulosis caused by finasteride.” J Allergy Clin Immunol 129: 589-94). The completion of the 21 day stress-induction cycle was followed by a two day withdrawal. […] The rodents' stress levels were also assessed via elevated plus maze (EPM) and open field test (OFT). […] Within the context of EPM, anxiety-related behavior was measured by the degree to which a mouse avoided the unenclosed arms of the maze. […] In OFT, each mouse was placed on an empty table surrounded by walls, and the mouse's movements and the time it spent moving were monitored. Within the context of OFT, anxiety-related behavior was measured by the degree to which a mouse avoided the open center and stayed close to the walls. […]

[5] = tested on: chronically stressed C57BL/6J mice; assay: open field test (OFT) behavioral anxiety test in chronically stressed mice; conditions: 1 μM DHM in Vaseline, topical once per day for six weeks
Experimental: as §5

## O=C1c2c(O)cc(O)cc2O[C@H](c2cc(O)c(O)c(O)c2)[C@H]1O [DHM, (2R,3R)-3,5,7-trihydroxy-2-(3,4,5-trihydroxyphenyl)-2,3-dihydrochromen-4-one]
C57BL/6J male mice [1]
  hair regrowth (grading 0-3): statistically significant increase in hair regrowth
c57BL/6J mice
  changes in body weight: did not exhibit any changes
  changes in metabolic rate: did not exhibit any changes
  rash, redness, or other responses associated with an allergic reaction: did not exhibit rash, redness, or other responses associated with an allergic reaction
C57BL/6J male mice [2]
  induction of anagen (grading 0-3): significantly different to treatment with the vehicle control
[3]; 1 μM DHM in Vaseline, topical once per day for six weeks, compared with unstressed control mice
  willingness to explore the open arms of the EPM apparatus: as willing to explore the open arms of the EPM apparatus as the unstressed control mice
[3]
  behavioral anxiety (EPM and OFT together): reversed
[3]; listed as dihydromyricetin
  behavioral anxiety (EPM and OFT together): behavioral anxiety was reduced
[4]
  hair regrowth on bald spots: hair regrowth was observed
[4]; listed as dihydromyricetin
  hair regrowth on bald spots: regrowth of hair
[5]
  locomotor activity in OFT: significantly increased locomotor activity
  running distance in OFT: longer running distance comparable to those of unstressed mice
